Experimental data as given in article PMC9133015 (Nature Communications, 2022).
“And” between values parts separate entries of the source, which are not always exact repeats. Identical values can stand only once. “Also recorded” adds a separate entry of the source.

Experiments:
ICR mice = experiment: Acute toxicity study; format: in vivo
DYRK2 = biological target: T1, DYRK2 (Homo sapiens, UniProt Q92630); experiment: DYRKs kinase activity assay (33P-ATP, DYRKtide substrate): DYRK2; format: biochemical
T1 construct: purchased Reaction Biology Corporation (assay service)
T1 sequence (Q92630 1-601): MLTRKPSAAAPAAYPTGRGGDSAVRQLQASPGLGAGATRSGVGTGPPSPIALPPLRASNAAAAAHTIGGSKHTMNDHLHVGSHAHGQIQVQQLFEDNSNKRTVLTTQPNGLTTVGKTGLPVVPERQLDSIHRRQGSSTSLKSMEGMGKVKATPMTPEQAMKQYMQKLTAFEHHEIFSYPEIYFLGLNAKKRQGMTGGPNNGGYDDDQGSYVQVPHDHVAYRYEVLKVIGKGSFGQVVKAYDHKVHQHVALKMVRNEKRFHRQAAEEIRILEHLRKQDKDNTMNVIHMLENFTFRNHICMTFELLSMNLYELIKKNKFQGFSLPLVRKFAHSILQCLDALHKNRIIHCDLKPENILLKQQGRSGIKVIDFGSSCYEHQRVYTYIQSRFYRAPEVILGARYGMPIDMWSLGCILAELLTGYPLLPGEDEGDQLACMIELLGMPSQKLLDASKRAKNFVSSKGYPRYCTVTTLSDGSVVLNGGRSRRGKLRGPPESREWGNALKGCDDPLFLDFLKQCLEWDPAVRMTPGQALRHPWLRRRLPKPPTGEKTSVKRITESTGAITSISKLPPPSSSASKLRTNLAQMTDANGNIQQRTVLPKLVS

[1] = biological target: T2, panel of 370 protein kinases (Homo sapiens, UniProt P17252); experiment: Kinase inhibitor specificity profiling (Reaction Biology Corporation); format: biochemical; parameters: % Enzyme Activity (relative to DMSO controls): concentration or dose not given beside the values; settings: 2 h, kinase PKCa; read-out: % Enzyme Activity (relative to DMSO controls)
T2 construct: purchased Reaction Biology Corporation (assay service)

[2] = biological target: T3, panel of 370 protein kinases (Homo sapiens, UniProt Q8IVH8); experiment: as above; format: biochemical; parameters: % Enzyme Activity (relative to DMSO controls): concentration or dose not given beside the values; settings: kinase GLK/MAP4K3
T3 construct: purchased Reaction Biology Corporation (assay service)
T3 sequence (Q8IVH8 whole entry): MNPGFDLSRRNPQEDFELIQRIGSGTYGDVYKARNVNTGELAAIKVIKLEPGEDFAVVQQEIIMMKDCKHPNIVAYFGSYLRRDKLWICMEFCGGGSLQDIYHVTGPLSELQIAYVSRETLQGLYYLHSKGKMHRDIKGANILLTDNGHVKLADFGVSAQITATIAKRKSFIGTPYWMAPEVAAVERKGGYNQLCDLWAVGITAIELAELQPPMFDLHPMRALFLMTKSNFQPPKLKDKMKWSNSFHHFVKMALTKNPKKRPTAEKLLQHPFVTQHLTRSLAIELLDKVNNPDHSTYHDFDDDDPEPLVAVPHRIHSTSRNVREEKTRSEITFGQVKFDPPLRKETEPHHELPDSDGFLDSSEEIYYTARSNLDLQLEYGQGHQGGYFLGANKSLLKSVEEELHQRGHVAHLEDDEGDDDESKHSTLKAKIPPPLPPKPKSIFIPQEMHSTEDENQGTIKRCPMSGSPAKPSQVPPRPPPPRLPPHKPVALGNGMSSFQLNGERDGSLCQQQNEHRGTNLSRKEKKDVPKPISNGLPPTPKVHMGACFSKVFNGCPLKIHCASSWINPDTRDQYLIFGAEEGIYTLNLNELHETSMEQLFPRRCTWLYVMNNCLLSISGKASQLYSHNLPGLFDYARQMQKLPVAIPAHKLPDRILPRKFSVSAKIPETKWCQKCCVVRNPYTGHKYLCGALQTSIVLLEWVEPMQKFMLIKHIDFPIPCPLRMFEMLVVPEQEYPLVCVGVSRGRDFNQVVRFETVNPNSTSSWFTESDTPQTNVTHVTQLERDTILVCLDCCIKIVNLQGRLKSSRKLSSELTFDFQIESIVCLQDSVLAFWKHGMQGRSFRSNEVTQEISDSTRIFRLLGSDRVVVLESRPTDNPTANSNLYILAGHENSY

[3] = biological target: T4, panel of 370 protein kinases (Homo sapiens, UniProt Q16584); experiment: as above; format: biochemical; parameters: % Enzyme Activity (relative to DMSO controls): concentration or dose not given beside the values; settings: kinase MLK3/MAP3K11
T4 construct: purchased Reaction Biology Corporation (assay service)
T4 sequence (Q16584 whole entry): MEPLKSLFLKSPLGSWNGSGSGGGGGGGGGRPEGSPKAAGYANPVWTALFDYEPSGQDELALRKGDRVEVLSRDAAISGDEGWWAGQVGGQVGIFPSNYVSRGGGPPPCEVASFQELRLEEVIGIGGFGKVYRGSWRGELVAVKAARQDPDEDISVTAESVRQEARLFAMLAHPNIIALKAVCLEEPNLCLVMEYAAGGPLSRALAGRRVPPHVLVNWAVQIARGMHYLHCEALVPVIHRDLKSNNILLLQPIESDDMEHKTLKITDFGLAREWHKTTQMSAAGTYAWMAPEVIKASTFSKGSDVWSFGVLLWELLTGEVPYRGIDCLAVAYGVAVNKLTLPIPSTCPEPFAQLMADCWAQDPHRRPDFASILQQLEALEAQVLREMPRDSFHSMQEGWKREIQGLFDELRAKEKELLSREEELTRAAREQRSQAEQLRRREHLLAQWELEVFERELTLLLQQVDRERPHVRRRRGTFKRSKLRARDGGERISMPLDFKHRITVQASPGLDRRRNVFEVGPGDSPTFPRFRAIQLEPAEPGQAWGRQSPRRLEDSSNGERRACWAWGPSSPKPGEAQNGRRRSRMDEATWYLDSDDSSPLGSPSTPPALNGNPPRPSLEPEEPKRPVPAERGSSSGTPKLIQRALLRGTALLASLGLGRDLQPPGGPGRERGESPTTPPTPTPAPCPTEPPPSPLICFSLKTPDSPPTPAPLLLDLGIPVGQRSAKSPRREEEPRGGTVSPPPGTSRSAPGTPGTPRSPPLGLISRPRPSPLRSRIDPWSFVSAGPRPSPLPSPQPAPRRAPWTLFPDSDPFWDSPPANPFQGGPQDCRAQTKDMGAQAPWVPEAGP

[4] = biological target: T5, panel of 370 protein kinases (Homo sapiens, UniProt P43250); experiment: as above; format: biochemical; parameters: % Enzyme Activity (relative to DMSO controls): concentration or dose not given beside the values; settings: 2 h, kinase GRK6; read-out: % Enzyme Activity (relative to DMSO controls)
T5 construct: purchased Reaction Biology Corporation (assay service)
T5 sequence (P43250 whole entry): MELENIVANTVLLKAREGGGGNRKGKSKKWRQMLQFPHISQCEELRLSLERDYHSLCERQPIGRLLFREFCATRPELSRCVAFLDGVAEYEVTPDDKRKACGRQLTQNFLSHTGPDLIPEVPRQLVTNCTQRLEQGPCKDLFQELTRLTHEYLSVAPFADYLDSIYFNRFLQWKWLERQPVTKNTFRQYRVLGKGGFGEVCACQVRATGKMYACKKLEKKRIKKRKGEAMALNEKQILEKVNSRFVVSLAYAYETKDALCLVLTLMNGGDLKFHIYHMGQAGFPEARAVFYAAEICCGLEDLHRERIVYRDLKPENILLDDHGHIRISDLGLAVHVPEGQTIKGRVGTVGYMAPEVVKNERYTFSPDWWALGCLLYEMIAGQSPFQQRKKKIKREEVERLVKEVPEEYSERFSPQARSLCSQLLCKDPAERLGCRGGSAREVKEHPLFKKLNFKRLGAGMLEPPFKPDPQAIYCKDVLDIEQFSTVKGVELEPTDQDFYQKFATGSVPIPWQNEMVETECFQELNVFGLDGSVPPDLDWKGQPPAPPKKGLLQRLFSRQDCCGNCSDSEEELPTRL

DYRK4 = biological target: T6, DYRK4 (Homo sapiens, UniProt Q9NR20); experiment: DYRKs kinase activity assay (33P-ATP, DYRKtide substrate): DYRK4; format: biochemical; settings: for % Inhibition DYRK4: duplicates
T6 construct: purchased Reaction Biology Corporation (assay service)
T6 sequence (Q9NR20 1-520): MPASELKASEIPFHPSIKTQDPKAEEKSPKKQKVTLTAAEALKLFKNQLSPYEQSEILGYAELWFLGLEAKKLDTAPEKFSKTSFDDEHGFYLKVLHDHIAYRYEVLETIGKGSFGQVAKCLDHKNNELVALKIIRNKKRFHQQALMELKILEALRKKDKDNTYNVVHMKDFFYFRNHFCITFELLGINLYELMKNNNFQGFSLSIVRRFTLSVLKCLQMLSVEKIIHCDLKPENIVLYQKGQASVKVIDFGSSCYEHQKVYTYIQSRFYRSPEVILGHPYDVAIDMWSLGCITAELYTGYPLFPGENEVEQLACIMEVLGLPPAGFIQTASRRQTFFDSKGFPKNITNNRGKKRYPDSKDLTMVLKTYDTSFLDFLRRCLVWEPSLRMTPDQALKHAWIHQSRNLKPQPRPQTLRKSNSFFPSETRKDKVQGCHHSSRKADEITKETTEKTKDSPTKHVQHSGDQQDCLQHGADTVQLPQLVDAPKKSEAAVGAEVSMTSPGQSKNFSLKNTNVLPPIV

[5] = ICR mice, single oral dose 2500, 5000, 10,000 mg/kg, 14 days

CCN1CCN(C(=O)c2ccc(Nc3ncc(F)c(-c4ccc5nc(N(C)C)sc5c4)n3)nc2)CC1 [YK-2-69]
Figure S9a body weight of individual mice (ICR mice; 5000 mg/kg, Day 2): 21.7 and 20.9 and 19.9 and 20.4 and 19.6 and 20.3 and 20.7 and 20.6 and 21.5 and 20.8
Figure S9b Heart (organ weight, individual mice) (ICR mice; 10000 mg/kg): 0.115 and 0.099 and 0.142 and 0.128 and 0.122 and 0.129 and 0.089 and 0.096 and 0.124 and 0.106
Figure S9b Kidney (organ weight, individual mice) (ICR mice; 10000 mg/kg): 0.412 and 0.389 and 0.476 and 0.423 and 0.403 and 0.621 and 0.586 and 0.639 and 0.7 and 0.641
Figure S9b Liver (organ weight, individual mice) (ICR mice; 10000 mg/kg): 1.352 and 1.294 and 1.186 and 1.416 and 1.222 and 1.613 and 1.358 and 1.429 and 1.61 and 1.389
Figure S9b Lung (organ weight, individual mice) (ICR mice; 10000 mg/kg): 0.418 and 0.361 and 0.395 and 0.475 and 0.486 and 0.369 and 0.384 and 0.416 and 0.336 and 0.333
Figure S9b Spleen (organ weight, individual mice) (ICR mice; 10000 mg/kg): 0.181 and 0.194 and 0.176 and 0.189 and 0.201 and 0.235 and 0.214 and 0.226 and 0.257
maximal tolerable dose (ICR mice; ICR mice, single oral dose): more than 10,000 mg/kg
abnormality and death (ICR mice; [5]): no mice died; also recorded: No abnormality and death were observed
body weight and main organs vs control (in words) (ICR mice; [5]): no difference was detected
inhibition at 0.00228624 µM (DYRK2; 0.00228624 µM, duplicates, read-out: % Inhibition DYRK2): 26.1%
inhibition at 0.00685871 µM (DYRK2; 0.00685871 µM, duplicates, read-out: % Inhibition DYRK2): 53%
inhibition at 0.0205761 µM (DYRK2; 0.0205761 µM, duplicates, read-out: % Inhibition DYRK2): 65.2%
inhibition at 0.0617284 µM (DYRK2; 0.0617284 µM, duplicates, read-out: % Inhibition DYRK2): 82.1%
inhibition at 0.185185 µM (DYRK2; 0.185185 µM, duplicates, read-out: % Inhibition DYRK2): 94.1%
inhibition at 0.555556 µM (DYRK2; 0.555556 µM, duplicates, read-out: % Inhibition DYRK2): 96.8%
inhibition at 5 µM (DYRK2; 5 µM, duplicates, read-out: % Inhibition DYRK2): 97.8%
IC50 (DYRK2; read-out: DYRK2 IC50): 9 nM
remaining activity at 1 µM [1]: 80%
% Enzyme Activity (relative to DMSO controls) [2]: 96.94% and 93.55%
% Enzyme Activity (relative to DMSO controls) [3]: 97.08% and 87.23%
remaining activity at 1 µM [4]: 114%
IC50 (DYRK4): > 1000 nM
% Inhibition DYRK4 (DYRK4; 0.000762079 µM): 1.66%
% Inhibition DYRK4 (DYRK4; 0.00228624 µM): -2.93% and -3.51%
% Inhibition DYRK4 (DYRK4; 0.00685871 µM): 3.37%
% Inhibition DYRK4 (DYRK4; 0.0205761 µM): 5.66%
% Inhibition DYRK4 (DYRK4; 0.0617284 µM): 18.67%
% Inhibition DYRK4 (DYRK4; 0.185185 µM): 25.42%
% Inhibition DYRK4 (DYRK4; 0.555556 µM): 42.15%
% Inhibition DYRK4 (DYRK4; 1.66667 µM): 56.81%
% Inhibition DYRK4 (DYRK4; 5 µM): 64.30%
inhibition at 0.000762079 µM (DYRK4; read-out: % Inhibition DYRK4, 0.000762079 µM, duplicates): 2.99%
inhibition at 0.00685871 µM (DYRK4; read-out: % Inhibition DYRK4, 0.00685871 µM, duplicates): 4.77%
inhibition at 0.0205761 µM (DYRK4; read-out: % Inhibition DYRK4, 0.0205761 µM, duplicates): 7.57%
inhibition at 0.0617284 µM (DYRK4; read-out: % Inhibition DYRK4, 0.0617284 µM, duplicates): 21.2%
inhibition at 0.185185 µM (DYRK4; read-out: % Inhibition DYRK4, 0.185185 µM, duplicates): 29.7%
inhibition at 0.555556 µM (DYRK4; read-out: % Inhibition DYRK4, 0.555556 µM, duplicates): 42.1%
inhibition at 1.66667 µM (DYRK4; read-out: % Inhibition DYRK4, 1.66667 µM, duplicates): 54.7%
inhibition at 5 µM (DYRK4; read-out: % Inhibition DYRK4, 5 µM, duplicates): 64.8%
selectivity over DYRK4 (DYRK4; vs DYRK2): more than 100 fold
